Assay results reported in patent publication US20170368089A1, “COMPOSITION FOR PREVENTING OR TREATING COLITIS” (UNIVERSITY-INDUSTRY COOPERATION GROUP OF KYUNG HEE …, priority 2012, published 2017).

Experiments:
Type in all cases: in vivo, ICR male mice
[1] = tested on: model animal with acute colitis induced by TNBS; assay: Acute colitis induced by TNBS in mice: weight change, macroscopic score, colon length, MPO activity, 4th experiment (Timosaponin A-III); conditions: FIGS. 38 to 41; 10 and 20 mg/mouse kg orally
Method: 4-week ICR male mice (24 to 27 g) were purchased from OrientBio. All the mice were bred under the controlled environmental conditions of 50±10% of humidity and 25±2° C. of temperature, and the lighting was repeatedly on for 12 hours and off for 12 hours. A feed for a standard experiment (Samyang, Korea) was used as a feed, and water was freely taken. For all the experiments, one group was 6 mice.
(2) Induction of acute colitis by TNBS and sample administration Among the experimental groups, one group was set as a normal group, and for the experimental animals in other groups, colitis was induced with 2,4,6-trinitrobenzenesulfonic acid (TNBS). […]
The sample administration to the model animals with acute colitis induced by TNBS was stopped, and at the next day, the weights of the experimental animals were measured, and then, the measured weights were compared with the initial weights to calculate the change amounts of weights […]
200 μl of lysis buffer was added to 100 mg of colon tissue, and then, the colon tissue was homogenized. […] In the supernatant, the MPO activity was measured using a mouse MPO assay ELISA kit (Hbt HK210, USA). […]

Myeloperoxidase (MPO) = assay: MPO activity of colon tissue (mouse MPO ELISA kit), TNBS colitis, first experiment; conditions: Table 3 (group 2), TNBS-treated mice, 3 days
Method: (§1) Among the experimental groups, one group was set as a normal group, and for the experimental animals in other groups, colitis was induced with 2,4,6-trinitrobenzenesulfonic acid (TNBS). In detail, after lightly anesthetizing the experimental animals with ether, 0.1 ml of the solution prepared by mixing […] of 2,4,6-Trinitrobenzene sulfonic acid (NBS) solution with 50% ethanol was injected into the colon through the anus using a syringe having 1 ml volume and oval point, respectively; and then, the syringe was vertically picked up, and then, maintained for 30 seconds to induce the inflammation. Meanwhile, 0.1 ml of normal saline solution was orally administered to the normal group. Since then, from the next day, the sample dissolved in normal saline solution was orally administered in the volume that was decided in advance one time a day for 3 days. At the next day after completing the sample administration, the experimental animals were suffocated to death with carbon dioxide, the colon from appendix to the region just before the anus was removed from the colon region.
200 μl of lysis buffer was added to 100 mg of colon tissue, and then, the colon tissue was homogenized. Since then, the homogenized colon tissue was centrifuged under the conditions of 4° C. and 13000 rpm for 15 minutes, and then, the supernatant thereof was obtained. In the supernatant, the MPO activity was measured using a mouse MPO assay ELISA kit (Hbt HK210, USA). 100 μl of the supernatant was added in a 96 well plate, and then, reacted at room temperature for 1 hour. After completing the reaction, the plate was overturned and emptied; was repeatedly washed three times with 200 μl of washing buffer solution; 100 μl of diluted tracer was added thereto; and then the reaction was performed at room temperature for 1 hour. After completing the reaction, the plate was overturned and emptied; and then each well in the plate was washed using 200 μl of washing buffer solution. After repeatedly performing the washing processes three times using 200 μl of washing buffer solution, 100 μl of diluted streptavidin-peroxidase conjugate was added thereto, and then, the reaction was performed at room temperature for 1 hour. After completing the reaction, the plate was overturned and emptied, and then, each well in the plate was washed with 200 μl of washing buffer solution. After the washing processes were repeatedly performed three times using 200 μl of washing buffer solution, 100 μl of TMB substrate solution was added thereto; the plate was wrapped in an aluminum foil to block out the light; and then, the reaction was performed at room temperature for 30 minutes. Since then, 100 μl of a stop solution was added to stop the reaction, and then, the absorbance was measured at 450 nm using an ELISA reader.

[2] = tested on: model animal with acute colitis induced by TNBS; assay: Acute colitis induced by TNBS in mice, appearance analysis of colon (colon length, macroscopic score), first experiment; conditions: Table 3 (group 2), TNBS-treated mice, 3 days; for Macroscopic score (Mean score): score 0-5
Method: 4-week ICR male mice (24 to 27 g) were purchased from OrientBio. All the mice were bred under the controlled environmental conditions of 50±10% of humidity and 25±2° C. of temperature, and the lighting was repeatedly on for 12 hours and off for 12 hours. A feed for a standard experiment (Samyang, Korea) was used as a feed, and water was freely taken. For all the experiments, one group was 6 mice. […] Meanwhile, 0.1 ml of normal saline solution was orally administered to the normal group. Since then, from the next day, the sample dissolved in normal saline solution was orally administered in the volume that was decided in advance one time a day for 3 days. At the next day after completing the sample administration, the experimental animals were suffocated to death with carbon dioxide, the colon from appendix to the region just before the anus was removed from the colon region. The scores about the removed colons were estimated by observing the appearances and the lengths of the colons according to the following criteria (Hollenbach, and the like, the criteria about the level of colon in 2005) as listed in Table 1. […] In addition, some of the content in the colon was collected in order to analyze the rumen microorganisms, and then, was stored in a freezer of −80° C. From the tissue of colon, the content in the colon was completely removed and then the tissue of colon was washed with normal saline solution. Since then, some of the tissue was fixed with 4% formaldehyde fixing solution in order to be used as a sample for a histopathological examination, and the rest was stored in a freezer of −80° C. for a molecular biological analysis.

TNF-alpha = TNF-alpha expression in colon tissue (ELISA), TNBS colitis, first experiment; conditions: Table 5 (group 2), TNBS-treated mice, 3 days
Method: as §1
(§2) 250 μl of RIPA butter including protease inhibitor cocktail was added to 100 mg of the colon tissue of experimental animal, and then, the colon tissue was homogenized. Since then, the homogenized colon tissue was centrifuged under the conditions of 4° C. and 13000 rpm for 15 minutes to obtain supernatant. While the supernatant was stored at −80° C., the expression amounts of IL-1 beta, IL-6, and TNF-alpha were measured using a 96-well ELISA plate kits (Pierce Biotechology, Inc., Rockford, Ill., USA).

IL-6 = IL-6 expression in colon tissue (ELISA), TNBS colitis, first experiment; conditions: Table 5 (group 2), TNBS-treated mice, 3 days
Method: as §1, §2

IL-1 beta = IL-1 beta expression in colon tissue (ELISA), TNBS colitis, first experiment; conditions: Table 5 (group 2), TNBS-treated mice, 3 days
Method: as §1, §2

| SMILES | effect on alleviating or improving acute colitis induced by TNBS (weight change, macroscopic score, colon length, MPO activity; in words) [1] | MPO activity (Myeloperoxidase (MPO); 10 mg/kg orally) [μUnit/mg] | Colon length ([2]; 10 mg/kg orally) [cm] | Macroscopic score (Mean score) ([2]; 10 mg/kg orally) | TNF-alpha conc. (TNF-alpha; 10 mg/kg orally) [pg/mg] | IL-6 conc. (IL-6; 10 mg/kg orally) [pg/mg] | IL-1 beta conc. (IL-1 beta; 10 mg/kg orally) [pg/mg] | MPO activity (Myeloperoxidase (MPO); 20 mg/kg orally) [μUnit/mg] | Colon length ([2]; 20 mg/kg orally) [cm] | Macroscopic score (Mean score) ([2]; 20 mg/kg orally) | TNF-alpha conc. (TNF-alpha; 20 mg/kg orally) [pg/mg] | IL-6 conc. (IL-6; 20 mg/kg orally) [pg/mg] | IL-1 beta conc. (IL-1 beta; 20 mg/kg orally) [pg/mg] |
| --- | --- | --- | --- | --- | --- | --- | --- | --- | --- | --- | --- | --- | --- |
| C[C@H]1CC[C@@]2(OC1)O[C@H]1C[C@H]3[C@@H]4CC[C@@H]5C[C@@H](O[C@@H]6O[C@H](CO)[C@H](O)[C@H](O)[C@H]6O[C@@H]6O[C@H](CO)[C@@H](O)[C@H](O)[C@H]6O)CC[C@]5(C)[C@H]4CC[C@]3(C)[C@H]1[C@@H]2C [Timosaponin A-III] | effect on alleviating or improving acute colitis induced by TNBS according to the concentration dependent |  |  |  |  |  |  |  |  |  |  |  |  |
| O=c1c2cc(O[C@@H]3O[C@H](CO)[C@@H](O)[C@H](O)[C@H]3O)c(O)cc2oc2cc(O)c([C@@H]3O[C@H](CO)[C@@H](O)[C@H](O)[C@H]3O)c(O)c12 [neomangiferin, Neomangiferin] |  | 0.6 ± 0.2 | 5.78 ± 0.10 | 2.8 ± 0.51 | 93.6 ± 9.2 | 6.9 ± 1.2 | 62.2 ± 5.1 |  |  |  |  |  |  |
| O=c1c2cc(O)c(O)cc2oc2cc(O)c([C@@H]3O[C@H](CO)[C@@H](O)[C@H](O)[C@H]3O)c(O)c12 [mangiferin, Mangiferin] |  | 0.5 ± 0.2 | 5.81 ± 0.09 | 2.7 ± 0.45 | 83.8 ± 10.9 | 5.0 ± 0.6 | 57.4 ± 2.1 | 0.2 ± 0.2 | 6.98 ± 0.21 | 1.7 ± 0.27 | 40.8 ± 10.9 | 2.2 ± 0.8 | 28.1 ± 12.1 |
